Data reported in ChEMBL document CHEMBL4610129, “Discovery of Novel Selective and Orally Bioavailable Phosphodiesterase-1 Inhibitors for the Efficient Treatment of Idiopathic Pulmonary Fibrosis” (J Med Chem, 2020).
Active and inactive are the calls of the source. The rule behind the calls is not given here.

How the values were obtained:
[1] = Half life in human liver microsomes; assay type: ADME, Microsome
[2] = biological target: cGMP-dependent 3',5'-cyclic phosphodiesterase (Homo sapiens, UniProt O00408); test: Inhibition of PDE2A (580 to 919 residues) (unknown origin) using [3H]-cGMP substrate incubated for 15 mins by liquid scintillation counting method relative to control
cGMP-dependent 3',5'-cyclic phosphodiesterase, sequence (O00408 whole entry, the tested form may be a part): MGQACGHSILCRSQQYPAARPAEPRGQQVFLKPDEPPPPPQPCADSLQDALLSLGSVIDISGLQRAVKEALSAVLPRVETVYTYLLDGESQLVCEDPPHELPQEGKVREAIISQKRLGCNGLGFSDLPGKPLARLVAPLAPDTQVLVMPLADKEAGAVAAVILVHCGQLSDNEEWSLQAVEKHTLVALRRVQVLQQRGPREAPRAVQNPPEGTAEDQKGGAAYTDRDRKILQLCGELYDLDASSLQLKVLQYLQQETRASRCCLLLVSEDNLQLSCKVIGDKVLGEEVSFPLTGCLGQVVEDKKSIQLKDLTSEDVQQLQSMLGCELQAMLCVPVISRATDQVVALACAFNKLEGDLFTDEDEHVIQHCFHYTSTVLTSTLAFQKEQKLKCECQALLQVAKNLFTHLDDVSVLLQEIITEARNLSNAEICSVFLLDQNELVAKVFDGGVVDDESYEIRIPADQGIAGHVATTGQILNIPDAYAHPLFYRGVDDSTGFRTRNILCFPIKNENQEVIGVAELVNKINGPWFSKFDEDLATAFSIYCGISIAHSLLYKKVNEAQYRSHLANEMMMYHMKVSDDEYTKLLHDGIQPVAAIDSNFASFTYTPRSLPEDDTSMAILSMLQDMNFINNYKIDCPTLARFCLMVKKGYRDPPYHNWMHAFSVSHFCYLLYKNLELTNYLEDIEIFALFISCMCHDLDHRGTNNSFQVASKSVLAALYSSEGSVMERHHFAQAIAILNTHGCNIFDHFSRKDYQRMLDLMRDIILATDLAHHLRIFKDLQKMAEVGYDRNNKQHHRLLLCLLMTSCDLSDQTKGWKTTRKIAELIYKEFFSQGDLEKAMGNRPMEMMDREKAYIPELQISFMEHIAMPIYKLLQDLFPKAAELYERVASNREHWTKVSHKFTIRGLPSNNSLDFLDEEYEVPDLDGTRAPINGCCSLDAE

[3] = Cmax in Sprague-Dawley rat at 5 mg/kg, po; assay type: ADME, organism-based; set-up: dose 5 mg/kg, route oral; settings: in vivo
[4] = biological target: High affinity cAMP-specific and IBMX-insensitive 3',5'-cyclic phosphodiesterase 8A (Homo sapiens, UniProt O60658); test: Inhibition of PDE8A1 (480 to 820 residues) (unknown origin) using [3H]-cAMP substrate incubated for 15 mins by liquid scintillation counting method relative to control
High affinity cAMP-specific and IBMX-insensitive 3',5'-cyclic phosphodiesterase 8A, sequence (O60658 whole entry, the tested form may be a part): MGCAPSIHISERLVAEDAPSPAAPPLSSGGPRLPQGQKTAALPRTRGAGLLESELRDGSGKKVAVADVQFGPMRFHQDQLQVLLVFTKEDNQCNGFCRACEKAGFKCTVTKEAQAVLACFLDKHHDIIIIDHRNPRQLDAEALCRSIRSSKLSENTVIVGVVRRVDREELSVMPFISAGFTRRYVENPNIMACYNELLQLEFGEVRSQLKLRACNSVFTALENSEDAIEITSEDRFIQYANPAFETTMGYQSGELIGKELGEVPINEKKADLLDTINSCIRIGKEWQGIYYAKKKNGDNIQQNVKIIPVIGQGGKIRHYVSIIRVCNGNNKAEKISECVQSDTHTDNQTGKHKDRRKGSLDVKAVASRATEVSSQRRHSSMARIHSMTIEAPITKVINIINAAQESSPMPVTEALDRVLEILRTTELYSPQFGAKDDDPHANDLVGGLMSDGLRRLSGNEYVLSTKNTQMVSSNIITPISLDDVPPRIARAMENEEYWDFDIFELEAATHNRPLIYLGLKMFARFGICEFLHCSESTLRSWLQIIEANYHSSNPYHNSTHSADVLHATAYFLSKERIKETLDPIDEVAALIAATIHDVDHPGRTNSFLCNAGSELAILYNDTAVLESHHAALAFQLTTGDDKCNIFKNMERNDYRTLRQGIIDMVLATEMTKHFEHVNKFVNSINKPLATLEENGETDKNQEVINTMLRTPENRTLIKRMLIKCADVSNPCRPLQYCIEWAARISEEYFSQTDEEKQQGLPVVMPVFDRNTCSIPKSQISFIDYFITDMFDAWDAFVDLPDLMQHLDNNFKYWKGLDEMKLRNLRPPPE

Rattus norvegicus [5] = test: Anti-pulmonary fibrosis activity in Sprague-Dawley rat model of BLM-induced idiopathic pulmonary fibrosis assessed as reduction in end-inspiratory pause at 10 mg/kg, po dosed daily for 28 days by mka noninvasive pulmonary monitoring system based method; assay type: functional, organism-based
Cytochrome P450 2D6 = Cytochrome P450 2D6 (Homo sapiens, UniProt P10635); test: Inhibition of human CYP2D6; assay type: ADME
[6] = Oral bioavailability in Sprague-Dawley rat at 5 mg/kg; assay type: ADME, organism-based; settings: in vivo
Rattus norvegicus [7] = test: Anti-pulmonary fibrosis activity in Sprague-Dawley rat model of BLM-induced idiopathic pulmonary fibrosis assessed as reduction in end-expiratory pause at 10 mg/kg, po dosed daily for 28 days by mka noninvasive pulmonary monitoring system based method; assay type: functional, organism-based
Cytochrome P450 1A2 = biological target: T1, Cytochrome P450 1A2 (Homo sapiens, UniProt P05177); test: Inhibition of human CYP1A2; assay type: ADME
T1 sequence (P05177 whole entry): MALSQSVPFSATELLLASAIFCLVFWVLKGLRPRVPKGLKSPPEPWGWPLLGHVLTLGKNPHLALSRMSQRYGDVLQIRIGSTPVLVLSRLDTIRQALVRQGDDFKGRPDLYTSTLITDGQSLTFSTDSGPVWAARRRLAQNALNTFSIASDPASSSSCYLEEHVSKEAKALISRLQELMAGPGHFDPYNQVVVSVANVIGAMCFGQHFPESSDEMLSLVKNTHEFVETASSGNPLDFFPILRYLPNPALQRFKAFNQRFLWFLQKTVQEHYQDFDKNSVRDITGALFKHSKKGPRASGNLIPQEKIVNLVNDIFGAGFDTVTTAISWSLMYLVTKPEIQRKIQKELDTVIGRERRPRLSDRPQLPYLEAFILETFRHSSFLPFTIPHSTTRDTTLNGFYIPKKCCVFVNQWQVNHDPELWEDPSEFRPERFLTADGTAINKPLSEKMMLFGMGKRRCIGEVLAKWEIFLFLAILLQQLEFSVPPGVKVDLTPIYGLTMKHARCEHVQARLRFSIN

[8] = MRT (0 to t) in Sprague-Dawley rat at 2.5 mg/kg, iv; assay type: ADME, organism-based; settings: in vivo
[9] = Half life in Sprague-Dawley rat at 2.5 mg/kg, iv; assay type: ADME, organism-based; settings: in vivo
Homo sapiens [10] = species: Homo sapiens; test: Anti-pulmonary fibrosis activity in human HLF assessed as reduction in TGF-beta-induced myofibroblast differentiation by measuring reduction in alpha-SMA protein expression incubated for 48 hrs by immunofluorescence staining analysis; assay type: functional
[11] = AUC (0 to t) in Sprague-Dawley rat at 5 mg/kg, po; assay type: ADME, organism-based; settings: in vivo
Cytochrome P450 3A4 [12] = biological target: T2, Cytochrome P450 3A4 (Homo sapiens, UniProt P08684); test: Inhibition of human CYP3A4 using midazolam as substrate; assay type: ADME
T2 sequence (P08684 whole entry): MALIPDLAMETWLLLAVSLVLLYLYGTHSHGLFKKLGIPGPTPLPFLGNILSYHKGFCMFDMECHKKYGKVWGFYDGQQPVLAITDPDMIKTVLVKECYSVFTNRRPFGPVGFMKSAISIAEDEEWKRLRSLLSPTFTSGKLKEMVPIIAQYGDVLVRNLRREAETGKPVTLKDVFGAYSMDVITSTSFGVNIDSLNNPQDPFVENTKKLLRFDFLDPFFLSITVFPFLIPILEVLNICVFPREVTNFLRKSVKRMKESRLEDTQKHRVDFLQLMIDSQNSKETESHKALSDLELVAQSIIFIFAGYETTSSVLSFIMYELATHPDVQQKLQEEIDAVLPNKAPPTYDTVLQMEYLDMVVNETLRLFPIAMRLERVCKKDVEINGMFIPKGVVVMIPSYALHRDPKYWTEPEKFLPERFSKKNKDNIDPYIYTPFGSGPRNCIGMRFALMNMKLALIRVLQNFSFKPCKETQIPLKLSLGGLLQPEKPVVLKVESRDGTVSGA

[13] = Half life in rat liver microsomes; assay type: ADME, Microsome
Cytochrome P450 3A4 [14] = biological target: T2, Cytochrome P450 3A4; test: Inhibition of human CYP3A4 using testosterone as substrate; assay type: ADME
[15] = Unbound fraction in human plasma; assay type: ADME, cell-free
Rattus norvegicus [16] = test: Anti-pulmonary fibrosis activity in Sprague-Dawley rat model of BLM-induced idiopathic pulmonary fibrosis assessed as reduction in peak expiratory flow at 10 mg/kg, po dosed daily for 28 days by mka noninvasive pulmonary monitoring system based method; assay type: functional, organism-based
[17] = AUC (0 to infinity) in Sprague-Dawley rat at 5 mg/kg, po; assay type: ADME, organism-based; set-up: dose 5 mg/kg, time infinity, route oral; settings: in vivo
Rattus norvegicus [18] = test: Anti-pulmonary fibrosis activity in Sprague-Dawley rat model of BLM-induced idiopathic pulmonary fibrosis assessed as reduction in enhanced pause at 10 mg/kg, po dosed daily for 28 days by mka noninvasive pulmonary monitoring system based method; assay type: functional, organism-based
[19] = biological target: High affinity cGMP-specific 3',5'-cyclic phosphodiesterase 9A (Homo sapiens, UniProt O76083); test: Inhibition of PDE9A2 (181 to 506 residues) (unknown origin) using [3H]-cGMP substrate incubated for 15 mins by liquid scintillation counting method relative to control
[20] = MRT (0 to t) in Sprague-Dawley rat at 5 mg/kg, po; assay type: ADME, organism-based; settings: in vivo
[21] = AUC (0 to infinity) in Sprague-Dawley rat at 2.5 mg/kg, iv; assay type: ADME, organism-based; set-up: dose 2.5 mg/kg, time infinity, route intravenous; settings: in vivo
Homo sapiens [22] = species: Homo sapiens; test: Anti-pulmonary fibrosis activity in human HLF assessed as reduction in TGF-beta-induced myofibroblast differentiation by measuring reduction in alpha-SMA protein expression incubated for 48 hrs by Western blot analysis; assay type: functional
[23] = AUC (0 to t) in Sprague-Dawley rat at 2.5 mg/kg, iv; assay type: ADME, organism-based; settings: in vivo
[24] = biological target: 3',5'-cyclic-AMP phosphodiesterase 4D (Homo sapiens, UniProt Q08499); test: Inhibition of PDE4D2 (86 to 413 residues) (unknown origin) using [3H]-cAMP substrate incubated for 15 mins by liquid scintillation counting method relative to control
3',5'-cyclic-AMP phosphodiesterase 4D, sequence (Q08499 whole entry, the tested form may be a part): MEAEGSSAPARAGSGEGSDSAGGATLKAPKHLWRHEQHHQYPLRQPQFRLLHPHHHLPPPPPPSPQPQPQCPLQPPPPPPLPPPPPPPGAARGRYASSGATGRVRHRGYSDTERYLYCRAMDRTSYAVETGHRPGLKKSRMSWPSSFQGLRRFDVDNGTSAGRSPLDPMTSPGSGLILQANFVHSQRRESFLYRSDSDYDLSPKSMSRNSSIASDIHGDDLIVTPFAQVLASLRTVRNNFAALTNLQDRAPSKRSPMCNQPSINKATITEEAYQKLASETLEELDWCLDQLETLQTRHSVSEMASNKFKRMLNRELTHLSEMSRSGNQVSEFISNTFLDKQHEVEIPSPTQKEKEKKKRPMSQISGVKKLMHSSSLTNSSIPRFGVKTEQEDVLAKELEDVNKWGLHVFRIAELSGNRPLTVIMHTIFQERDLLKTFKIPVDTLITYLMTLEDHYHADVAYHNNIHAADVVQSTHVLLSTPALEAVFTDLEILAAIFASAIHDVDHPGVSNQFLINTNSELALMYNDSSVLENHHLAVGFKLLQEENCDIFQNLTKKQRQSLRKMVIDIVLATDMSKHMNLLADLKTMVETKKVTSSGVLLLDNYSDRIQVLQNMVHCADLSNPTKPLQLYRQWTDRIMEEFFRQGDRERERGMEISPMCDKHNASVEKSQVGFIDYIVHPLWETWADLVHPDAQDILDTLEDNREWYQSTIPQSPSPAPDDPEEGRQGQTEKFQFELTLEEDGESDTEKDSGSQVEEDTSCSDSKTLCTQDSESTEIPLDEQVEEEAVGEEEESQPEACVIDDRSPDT

[25] = biological target: Voltage-gated inwardly rectifying potassium channel KCNH2 (Homo sapiens, UniProt Q12809); test: Inhibition of human ERG
Voltage-gated inwardly rectifying potassium channel KCNH2, sequence (Q12809 whole entry): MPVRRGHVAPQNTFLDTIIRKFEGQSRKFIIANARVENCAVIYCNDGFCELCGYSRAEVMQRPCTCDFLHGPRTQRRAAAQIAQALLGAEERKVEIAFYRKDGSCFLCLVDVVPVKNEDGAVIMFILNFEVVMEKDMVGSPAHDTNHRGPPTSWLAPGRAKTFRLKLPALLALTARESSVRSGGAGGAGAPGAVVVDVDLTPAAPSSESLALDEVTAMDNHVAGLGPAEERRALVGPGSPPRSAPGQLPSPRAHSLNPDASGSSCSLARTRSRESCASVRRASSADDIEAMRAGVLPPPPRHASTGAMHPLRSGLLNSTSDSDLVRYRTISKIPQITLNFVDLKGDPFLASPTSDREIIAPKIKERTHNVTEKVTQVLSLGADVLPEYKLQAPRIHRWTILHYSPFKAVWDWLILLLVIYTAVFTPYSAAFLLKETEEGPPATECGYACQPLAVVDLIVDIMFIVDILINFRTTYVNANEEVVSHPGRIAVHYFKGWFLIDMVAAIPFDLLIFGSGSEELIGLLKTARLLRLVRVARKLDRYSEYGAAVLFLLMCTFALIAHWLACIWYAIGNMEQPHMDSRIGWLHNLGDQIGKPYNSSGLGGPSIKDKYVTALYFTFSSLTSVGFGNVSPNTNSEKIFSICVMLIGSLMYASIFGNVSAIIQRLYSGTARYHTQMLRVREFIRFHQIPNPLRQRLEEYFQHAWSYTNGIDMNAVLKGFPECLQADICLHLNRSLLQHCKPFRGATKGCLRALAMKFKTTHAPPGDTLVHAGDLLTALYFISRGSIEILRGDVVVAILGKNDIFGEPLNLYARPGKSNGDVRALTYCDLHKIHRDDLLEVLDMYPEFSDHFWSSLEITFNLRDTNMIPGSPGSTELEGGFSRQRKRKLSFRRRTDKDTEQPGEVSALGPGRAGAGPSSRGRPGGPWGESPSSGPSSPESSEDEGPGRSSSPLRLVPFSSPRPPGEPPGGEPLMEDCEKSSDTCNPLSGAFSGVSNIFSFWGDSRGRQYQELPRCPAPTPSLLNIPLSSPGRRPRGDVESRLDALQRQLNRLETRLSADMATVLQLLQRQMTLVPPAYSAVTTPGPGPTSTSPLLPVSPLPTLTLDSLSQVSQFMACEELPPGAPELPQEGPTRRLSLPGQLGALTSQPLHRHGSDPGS

Cytochrome P450 2C9 = Cytochrome P450 2C9 (Homo sapiens, UniProt P11712); test: Inhibition of human CYP2C9; assay type: ADME
[26] = Acute toxicity in mouse; assay type: organism-based; settings: in vivo
[27] = biological target: High affinity 3',5'-cyclic-AMP phosphodiesterase 7A (Homo sapiens, UniProt Q13946); test: Inhibition of PDE7A1 (130 to 482 residues) (unknown origin) using [3H]-cAMP substrate incubated for 15 mins by liquid scintillation counting method relative to control
High affinity 3',5'-cyclic-AMP phosphodiesterase 7A, sequence (Q13946 whole entry, the tested form may be a part): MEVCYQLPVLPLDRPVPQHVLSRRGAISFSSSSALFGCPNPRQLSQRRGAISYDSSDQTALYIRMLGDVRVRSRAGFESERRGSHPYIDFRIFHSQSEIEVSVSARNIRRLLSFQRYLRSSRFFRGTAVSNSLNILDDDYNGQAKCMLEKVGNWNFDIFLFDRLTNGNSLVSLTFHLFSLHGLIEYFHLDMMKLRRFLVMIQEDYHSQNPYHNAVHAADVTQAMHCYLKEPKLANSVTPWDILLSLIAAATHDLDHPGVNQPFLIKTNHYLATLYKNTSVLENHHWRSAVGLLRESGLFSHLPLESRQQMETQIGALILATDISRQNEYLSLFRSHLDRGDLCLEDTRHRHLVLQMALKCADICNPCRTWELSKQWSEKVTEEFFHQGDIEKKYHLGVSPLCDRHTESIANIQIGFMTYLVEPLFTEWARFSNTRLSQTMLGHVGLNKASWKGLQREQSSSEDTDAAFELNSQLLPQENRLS

Rattus norvegicus [28] = test: Anti-pulmonary fibrosis activity in Sprague-Dawley rat model of BLM-induced idiopathic pulmonary fibrosis assessed as inhibition of alpha-SMA protein expression at 10 mg/kg, po dosed daily for 28 days by immunofluorescence staining analysis; assay type: functional, organism-based
Rattus norvegicus [29] = test: Anti-pulmonary fibrosis activity in Sprague-Dawley rat model of BLM-induced idiopathic pulmonary fibrosis assessed as inhibition of alpha-SMA protein expression at 10 mg/kg, po dosed daily for 28 days by Western blot analysis; assay type: functional, organism-based
[30] = biological target: cGMP-inhibited 3',5'-cyclic phosphodiesterase 3A (Homo sapiens, UniProt Q14432); test: Inhibition of PDE3A (679 to 1087 residues) (unknown origin) using [3H]-cAMP substrate incubated for 15 mins by liquid scintillation counting method relative to control
Rattus norvegicus [31] = test: Anti-pulmonary fibrosis activity in Sprague-Dawley rat model of BLM-induced idiopathic pulmonary fibrosis assessed as reduction in lung structural damage at 10 mg/kg, po dosed daily for 28 days by H and E staining based assay; assay type: functional, organism-based

**Q.** For `C[C@@H](Nc1nc2c(cnn2C(C)(C)C)c(=O)n1Cc1ccc(F)cc1)c1ccc(Cl)cc1`, which half-life [1] is on record?
**A.** 0.262 h

**Q.** What about the IC50 [2] of the same molecule?
**A.** > 10 µM

**Q.** And the Cmax [3]?
**A.** 169 ng/mL

**Q.** What about the IC50 [4] of the same molecule?
**A.** 2.02 µM

**Q.** And the Activity (Rattus norvegicus [5])?
**A.** Active

**Q.** What about the IC50 (Cytochrome P450 2D6) of the same molecule?
**A.** > 25 µM

**Q.** And the bioavailability [6]?
**A.** 34%

**Q.** What about the Activity (Rattus norvegicus [7]) of the same molecule?
**A.** Active

**Q.** And the IC50 (Cytochrome P450 1A2)?
**A.** > 25 µM

**Q.** What about the MRT last [8] of the same molecule?
**A.** 5.81 h

**Q.** What about the half-life [9] of the same molecule?
**A.** 5.5 h

**Q.** What about the Activity (Homo sapiens [10]) of the same molecule?
**A.** Dose-dependent effect

**Q.** What about the AUC(0-t) [11] of the same molecule?
**A.** 1300 ng·h/mL

**Q.** And the IC50 (Cytochrome P450 3A4 [12])?
**A.** > 25 µM

**Q.** What about the half-life [13] of the same molecule?
**A.** 0.263 to 0.267 h

**Q.** And the IC50 (Cytochrome P450 3A4 [14])?
**A.** > 25 µM

**Q.** What about the Fu [15] of the same molecule?
**A.** 0.1%

**Q.** What about the Activity (Rattus norvegicus [16]) of the same molecule?
**A.** Active

**Q.** What about the AUC(0-inf) [17] of the same molecule?
**A.** 1320 ng·h/mL

**Q.** And the Activity (Rattus norvegicus [18])?
**A.** Active

**Q.** And the IC50 [19]?
**A.** > 10 µM

**Q.** And the MRT last [20]?
**A.** 6.88 h

**Q.** What about the AUC(0-inf) [21] of the same molecule?
**A.** 2100 ng·h/mL

**Q.** What about the Activity (Homo sapiens [22]) of the same molecule?
**A.** Dose-dependent effect

**Q.** What about the AUC(0-t) [23] of the same molecule?
**A.** 1930 ng·h/mL

**Q.** And the IC50 [24]?
**A.** 0.699 µM

**Q.** What about the IC50 [25] of the same molecule?
**A.** 11 µM

**Q.** What about the IC50 (Cytochrome P450 2C9) of the same molecule?
**A.** 6.6 µM

**Q.** What about the MTD [26] of the same molecule?
**A.** > 1500 mg/kg

**Q.** What about the IC50 [27] of the same molecule?
**A.** > 10 µM

**Q.** What about the Activity (Rattus norvegicus [28]) of the same molecule?
**A.** Active

**Q.** And the Activity (Rattus norvegicus [29])?
**A.** Active

**Q.** And the IC50 [30]?
**A.** > 10 µM

**Q.** And the Activity (Rattus norvegicus [31])?
**A.** Active
